Experimental data reported in ChEMBL document CHEMBL1201862, “PubChem BioAssay data set” (2004).
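Each compound was tested at five concentrations against cells in 96-well plates for 48 hours. GI50 marks 50% less growth.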 Activity calls are given as the source filed them. No stated cut-off is given here; in the data, active = GI50 up to about 1.1 µM and inactive = higher.

What was measured:
Test in all cases: DTP human tumour cell line panel, 48 h
EKVX = system: EKVX
IGROV-1 = system: IGROV-1
LOX IMVI = system: LOX IMVI
MDA-MB-435 = system: MDA-MB-435
NCI-H226 = system: NCI-H226
OVCAR-3 = system: OVCAR-3
OVCAR-5 = system: OVCAR-5
SF-268 = system: SF-268
SK-MEL-2 = system: SK-MEL-2
SN12C = system: SN12C
SNB-19 = system: SNB-19
T47D = system: T47D
TK-10 = system: TK-10
U-251 = system: U-251
A498 = system: A498
CCRF-CEM = system: CCRF-CEM
HCC 2998 = system: HCC 2998
HOP-62 = system: HOP-62
SNB-75 = system: SNB-75

Measured: GI50

Oc1ccc(-c2nc3ccc(F)cc3s2)cc1
inactive: EKVX 10.8 µM | IGROV-1 16.9 µM | LOX IMVI 20.4 µM | MDA-MB-435 20.4 µM | NCI-H226 18.6 µM | OVCAR-3 30.7 µM | OVCAR-5 21.7 µM | SF-268 23.2 µM | SK-MEL-2 19.1 µM | SN12C 18.4 µM | SNB-19 19.3 µM | T47D 15.1 µM | TK-10 16 µM | U-251 19.2 µM

Nc1n[nH]c2nc3ccc(C(F)(F)F)cc3nc12
inactive: A498 33 µM | CCRF-CEM 17 µM | EKVX 7.87 µM | HCC 2998 37.7 µM | HOP-62 18.5 µM | IGROV-1 21.9 µM | LOX IMVI 18.6 µM | MDA-MB-435 64.9 µM | OVCAR-5 25.6 µM | SF-268 33.7 µM | SK-MEL-2 23.3 µM | SN12C 26.2 µM | SNB-19 32.2 µM | SNB-75 13.6 µM | TK-10 32.4 µM | U-251 39.5 µM

CC1(C)C[C@@H]2C1CCC1(C)CC2(O)CC[C@H]1O (stereo partly specified)
inactive: CCRF-CEM > 100 µM | EKVX > 100 µM | HOP-62 > 100 µM | IGROV-1 > 100 µM | LOX IMVI > 100 µM | MDA-MB-435 > 100 µM | NCI-H226 > 100 µM | OVCAR-3 > 100 µM | OVCAR-5 > 100 µM | SF-268 > 100 µM | SK-MEL-2 > 100 µM | SN12C > 100 µM | SNB-19 > 100 µM | SNB-75 > 100 µM | T47D > 100 µM | TK-10 > 100 µM | U-251 > 100 µM

O=C(CC(=O)n1nc(-c2ccccc2)c(/N=N/c2ccccc2Cl)c1-c1ccccc1)Nc1ccc(Cl)cc1
inactive: A498 > 100 µM | CCRF-CEM > 44.9 µM | EKVX > 100 µM | HCC 2998 > 100 µM | HOP-62 > 100 µM | IGROV-1 > 100 µM | LOX IMVI > 44.4 µM | NCI-H226 > 100 µM | OVCAR-3 > 100 µM | OVCAR-5 > 100 µM | SF-268 > 100 µM | SK-MEL-2 > 100 µM | SN12C > 100 µM | SNB-19 > 100 µM | SNB-75 > 100 µM | TK-10 > 96.2 µM | U-251 > 38.6 µM

CO/S(=N/S(=O)(=O)c1ccccc1)c1ccccc1[N+](=O)[O-] (stereo unspecified)
inactive: CCRF-CEM > 100 µM | EKVX > 100 µM | HCC 2998 > 100 µM | HOP-62 > 100 µM | IGROV-1 > 100 µM | LOX IMVI > 100 µM | NCI-H226 > 100 µM | OVCAR-3 > 100 µM | OVCAR-5 > 100 µM | SF-268 > 100 µM | SK-MEL-2 > 100 µM | SN12C > 100 µM | SNB-19 > 100 µM | SNB-75 > 100 µM | U-251 > 100 µM

N#CCCC(C#N)(C#N)CCC#N
inactive: CCRF-CEM > 10 µM | EKVX > 100 µM | HCC 2998 > 100 µM | HOP-62 > 100 µM | IGROV-1 > 100 µM | LOX IMVI > 100 µM | NCI-H226 > 100 µM | OVCAR-3 > 100 µM | SF-268 > 100 µM | SN12C > 100 µM | SNB-19 > 100 µM | TK-10 > 100 µM | U-251 > 100 µM

COc1ccc2c(C)cc(C)nc2n1
inactive: A498 > 100 µM | CCRF-CEM > 100 µM | EKVX > 100 µM | HCC 2998 > 100 µM | HOP-62 > 100 µM | IGROV-1 > 100 µM | LOX IMVI > 100 µM | MDA-MB-435 > 100 µM | OVCAR-3 > 100 µM | OVCAR-5 > 100 µM | SK-MEL-2 > 100 µM | SN12C > 100 µM | SNB-19 > 100 µM | SNB-75 > 100 µM | T47D > 100 µM | TK-10 > 100 µM | U-251 > 100 µM

OCC1NCC(O)C(O)C1O (stereo unspecified)
inactive: A498 > 100 µM | CCRF-CEM > 100 µM | EKVX > 100 µM | HCC 2998 > 100 µM | HOP-62 > 100 µM | IGROV-1 > 100 µM | MDA-MB-435 > 100 µM | OVCAR-3 > 100 µM | OVCAR-5 > 100 µM | SF-268 > 100 µM | SN12C > 100 µM | SNB-19 > 100 µM | SNB-75 > 100 µM | TK-10 > 100 µM | U-251 > 100 µM

OCC1OC(NC(=S)NCSCCC(F)(F)C(F)(F)C(F)(F)C(F)(F)C(F)(F)C(F)(F)F)C(O)C(O)C1O (stereo unspecified)
inactive: A498 1.77 µM | CCRF-CEM 23.3 µM | HCC 2998 43.8 µM | HOP-62 32.4 µM | IGROV-1 31.8 µM | LOX IMVI 34.4 µM | MDA-MB-435 16.4 µM | OVCAR-3 86.9 µM | OVCAR-5 56.1 µM | SF-268 15.2 µM | SK-MEL-2 51.6 µM | SN12C 60 µM | SNB-19 36.6 µM | SNB-75 96.4 µM | T47D > 100 µM | TK-10 49.7 µM | U-251 17.5 µM
